Inhibition and IC50 data for 37 compounds are collected here from ChEMBL document CHEMBL5131481, “Topoisomerase IIα inhibitory and antiproliferative activity of dihydroxylated 2,6-diphenyl-4-fluorophenylpyridines: Design, synthesis, and structure-activity relationships” (Bioorg Med Chem Lett, 2022).

The target in experiment [1] is DNA topoisomerase 2-alpha (Homo sapiens) (UniProt P11388). In words: Inhibition of topoisomerase 2alpha (unknown origin) assessed as relaxation of supercoiled plasmid pBR322 DNA at 100 uM relative to control.
Experiment [2] concerns DU-145. In words: Antiproliferative activity against human DU-145 cells assessed as inhibition of cell proliferation. The class given is functional, cell-based.
In experiment [3] the test system is HCT-15. In words: Antiproliferative activity against human HCT-15 cells assessed as inhibition of cell proliferation. The class given is functional, cell-based.
Experiment [4] relates to T47D. In words: Antiproliferative activity against human T47D cells assessed as inhibition of cell proliferation. It counts as functional, cell-based.
Experiment [5] relates to HeLa. In words: Antiproliferative activity against human HeLa cells assessed as inhibition of cell proliferation. It counts as functional, cell-based.

Structures can show the parent of a compound that is named as a salt.

Chain of DNA topoisomerase 2-alpha (Homo sapiens) (P11388 whole entry): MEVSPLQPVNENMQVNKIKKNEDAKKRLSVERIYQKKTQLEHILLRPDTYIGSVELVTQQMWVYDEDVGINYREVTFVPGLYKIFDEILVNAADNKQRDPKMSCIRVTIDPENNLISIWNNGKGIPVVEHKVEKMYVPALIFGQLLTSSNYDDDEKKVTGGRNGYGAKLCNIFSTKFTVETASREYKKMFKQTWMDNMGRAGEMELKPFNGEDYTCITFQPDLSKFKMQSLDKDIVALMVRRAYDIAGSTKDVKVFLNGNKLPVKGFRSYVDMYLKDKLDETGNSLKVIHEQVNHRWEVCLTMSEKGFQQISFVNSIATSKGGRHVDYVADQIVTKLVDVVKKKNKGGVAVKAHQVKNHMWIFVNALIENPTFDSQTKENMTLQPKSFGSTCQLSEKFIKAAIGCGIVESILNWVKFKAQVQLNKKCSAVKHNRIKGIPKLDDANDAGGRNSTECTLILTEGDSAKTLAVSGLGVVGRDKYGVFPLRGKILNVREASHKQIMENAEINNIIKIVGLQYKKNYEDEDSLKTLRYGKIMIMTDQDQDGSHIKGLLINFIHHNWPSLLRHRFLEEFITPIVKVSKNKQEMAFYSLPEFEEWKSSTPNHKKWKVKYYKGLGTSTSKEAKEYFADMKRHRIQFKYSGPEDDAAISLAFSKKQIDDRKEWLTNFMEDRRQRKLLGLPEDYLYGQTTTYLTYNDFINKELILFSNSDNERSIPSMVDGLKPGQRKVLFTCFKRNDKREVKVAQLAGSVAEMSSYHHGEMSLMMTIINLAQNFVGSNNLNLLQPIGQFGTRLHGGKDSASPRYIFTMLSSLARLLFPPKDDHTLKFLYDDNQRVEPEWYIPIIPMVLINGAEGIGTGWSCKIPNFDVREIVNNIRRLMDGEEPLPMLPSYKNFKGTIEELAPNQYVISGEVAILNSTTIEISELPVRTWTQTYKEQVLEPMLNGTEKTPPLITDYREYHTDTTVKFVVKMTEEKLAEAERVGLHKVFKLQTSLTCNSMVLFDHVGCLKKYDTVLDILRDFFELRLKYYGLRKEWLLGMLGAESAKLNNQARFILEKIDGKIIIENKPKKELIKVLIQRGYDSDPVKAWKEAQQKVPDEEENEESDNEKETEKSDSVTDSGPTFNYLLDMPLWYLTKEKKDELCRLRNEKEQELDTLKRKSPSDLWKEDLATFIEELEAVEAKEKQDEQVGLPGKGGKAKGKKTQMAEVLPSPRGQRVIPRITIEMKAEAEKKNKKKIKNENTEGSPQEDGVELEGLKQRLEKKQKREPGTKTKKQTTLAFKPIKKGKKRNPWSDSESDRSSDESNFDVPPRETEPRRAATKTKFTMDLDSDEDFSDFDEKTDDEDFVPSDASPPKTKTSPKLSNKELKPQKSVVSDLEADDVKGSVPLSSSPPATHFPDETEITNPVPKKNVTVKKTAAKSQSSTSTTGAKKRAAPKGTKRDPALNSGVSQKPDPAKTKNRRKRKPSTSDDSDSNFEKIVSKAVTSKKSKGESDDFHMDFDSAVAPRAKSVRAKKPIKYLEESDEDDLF

Consider `Oc1cccc(-c2cc(-c3ccccc3OC(F)(F)F)cc(-c3ccccc3O)n2)c1`, for which the inhibition in experiment [1] worked out at 0%. The IC50 was greater than 50 µM in experiment [2], 3.24 µM in experiment [3], 2.68 µM in experiment [4] and 15.2 µM in experiment [5].

For the compound `Oc1cccc(-c2cc(-c3ccc(OC(F)(F)F)cc3)cc(-c3cccc(O)c3)n2)c1`, the inhibition in experiment [1] stood at 6%. The IC50 in experiment [2] was greater than 50 µM; in experiment [3], greater than 50 µM; in experiment [4], 9.82 µM; in experiment [5], 18.7 µM.

In the case of `COc1cccc2c1C(=O)c1c(O)c3c(c(O)c1C2=O)C[C@@](O)(C(=O)CO)C[C@@H]3O[C@H]1C[C@H](N)[C@H](O)[C@H](C)O1` [DOXORUBICIN HYDROCHLORIDE], the IC50 in experiment [2] was 5.85 µM; in experiment [3], 1.28 µM; in experiment [4], 4.59 µM; in experiment [5] it was 5.04 µM.

Consider `Oc1ccccc1-c1cc(-c2ccc(OC(F)(F)F)cc2)cc(-c2ccccc2O)n1`, for which the inhibition in experiment [1] came out at 0%. Also, the IC50 in experiment [2] was 20.3 µM; in experiment [3], greater than 50 µM; in experiment [4] it was greater than 50 µM; in experiment [5] it was greater than 50 µM.

For `Oc1cccc(-c2cc(-c3cccc(OC(F)(F)F)c3)cc(-c3cccc(O)c3)n2)c1`, in experiment [1], the inhibition is 5.7%. For the same compound, the IC50 in experiment [2] is greater than 50 µM; in experiment [3] it was greater than 50 µM; in experiment [4], 6.74 µM; in experiment [5], greater than 50 µM.

With `Oc1cccc(-c2cc(-c3cccc(C(F)(F)F)c3)cc(-c3cccc(O)c3)n2)c1`, the inhibition in experiment [1] is 25.2%. In addition, the IC50 in experiment [2] was greater than 50 µM; in experiment [3] it was 13.6 µM; in experiment [4], 4.97 µM; in experiment [5] it was 12.7 µM.

In the case of `Oc1ccccc1-c1cc(-c2cccc(OC(F)(F)F)c2)cc(-c2ccccc2O)n1`, the inhibition in experiment [1] is 14.8%. In addition, the IC50 is 7.47 µM in experiment [2], greater than 50 µM in experiment [3], greater than 50 µM in experiment [4] and greater than 50 µM in experiment [5].

Regarding `Oc1cccc(-c2cc(-c3ccc(OC(F)(F)F)cc3)cc(-c3ccccc3O)n2)c1`, the inhibition in experiment [1] turned out to be 0%. The IC50 was 21.1 µM in experiment [2], 9.41 µM in experiment [3], 7.71 µM in experiment [4] and 20.6 µM in experiment [5].

Regarding `Oc1cccc(-c2cc(-c3cccc(F)c3)cc(-c3ccccc3O)n2)c1`, the inhibition in experiment [1] is 8.8%. For the same compound, the IC50 in experiment [2], in experiment [3], in experiment [4] and in experiment [5] was greater than 50 µM throughout.

For `Oc1ccccc1-c1cc(-c2ccccc2F)cc(-c2ccccc2O)n1`, the inhibition in experiment [1] was 10.3%. Moreover, the IC50 in experiment [2], in experiment [3], in experiment [4] and in experiment [5] was greater than 50 µM in each case.

`Oc1cccc(-c2cc(-c3ccc(C(F)(F)F)cc3)cc(-c3ccccc3O)n2)c1`: in experiment [1], the inhibition was 0.2%. Besides, the IC50 in experiment [2], in experiment [3], in experiment [4] and in experiment [5] was greater than 50 µM each time.

For the compound `Oc1ccc(-c2cc(-c3ccc(F)cc3)cc(-c3ccccc3O)n2)cc1`, in experiment [1], the inhibition was found to be 0%. The IC50 in experiment [2], in experiment [3], in experiment [4] and in experiment [5] was greater than 50 µM in each case.

On to `Oc1ccc(-c2cc(-c3ccccc3OC(F)(F)F)cc(-c3ccccc3O)n2)cc1`, for which the inhibition in experiment [1] was 0%. Moreover, the IC50 in experiment [2] was determined as 4.19 µM; in experiment [3], 9.82 µM; in experiment [4] it was 2.05 µM; in experiment [5], 6.01 µM.

Regarding `Oc1ccc(-c2cc(-c3ccccc3C(F)(F)F)cc(-c3ccc(O)cc3)n2)cc1`, the inhibition in experiment [1] is 0%. The IC50 in experiment [2], in experiment [3], in experiment [4] and in experiment [5] was greater than 50 µM each time.

As for `Oc1ccc(-c2cc(-c3cccc(C(F)(F)F)c3)cc(-c3ccc(O)cc3)n2)cc1`, in experiment [1], the inhibition was 0%. The IC50 in experiment [2], in experiment [3], in experiment [4] and in experiment [5] was greater than 50 µM throughout.

Consider `Oc1ccccc1-c1cc(-c2ccccc2C(F)(F)F)cc(-c2ccccc2O)n1`, for which the inhibition in experiment [1] was found to be 0%. Besides, the IC50 in experiment [2] is 4.77 µM; in experiment [3] it was 3.97 µM; in experiment [4] it was 22.5 µM; in experiment [5], 5.8 µM.

In the case of `Oc1ccc(-c2cc(-c3cccc(F)c3)cc(-c3ccccc3O)n2)cc1`, the inhibition in experiment [1] was determined as 16.3%. In addition, the IC50 in experiment [2], in experiment [3], in experiment [4] and in experiment [5] was greater than 50 µM throughout.

As for `Oc1cccc(-c2cc(-c3ccccc3C(F)(F)F)cc(-c3cccc(O)c3)n2)c1`, the inhibition in experiment [1] came out at 34%. In addition, the IC50 was found to be 2.87 µM in experiment [2], 8.15 µM in experiment [3], 4.35 µM in experiment [4] and 15.2 µM in experiment [5].

As for `Oc1ccccc1-c1cc(-c2ccccc2OC(F)(F)F)cc(-c2ccccc2O)n1`, in experiment [1], the inhibition came out at 12.5%. In addition, the IC50 came to 5.85 µM in experiment [2], 4.52 µM in experiment [3], 1.73 µM in experiment [4] and 9.75 µM in experiment [5].

Regarding `Oc1ccc(-c2cc(-c3ccccc3C(F)(F)F)cc(-c3ccccc3O)n2)cc1`, the inhibition in experiment [1] came to 0%. Moreover, the IC50 in experiment [2] turned out to be 6.69 µM; in experiment [3], 8.99 µM; in experiment [4] it was 7.18 µM; in experiment [5], 16.5 µM.

For `Oc1ccc(-c2cc(-c3cccc(C(F)(F)F)c3)cc(-c3cccc(O)c3)n2)cc1`, the inhibition in experiment [1] turned out to be 28%. The IC50 in experiment [2] stood at 11.1 µM; in experiment [3], 9.54 µM; in experiment [4], 2.63 µM; in experiment [5] it was 16.2 µM.

In the case of `Oc1cccc(-c2cc(-c3ccc(C(F)(F)F)cc3)cc(-c3cccc(O)c3)n2)c1`, the inhibition in experiment [1] was 24%. Also, the IC50 in experiment [2] was 33.5 µM; in experiment [3] it was greater than 50 µM; in experiment [4], 2.33 µM; in experiment [5], greater than 50 µM.

As for `Oc1ccccc1-c1cc(-c2cccc(F)c2)cc(-c2ccccc2O)n1`, the inhibition in experiment [1] is 0%. Further, the IC50 in experiment [2], in experiment [3], in experiment [4] and in experiment [5] was greater than 50 µM in each case.

Regarding `Oc1ccc(-c2cc(-c3cccc(OC(F)(F)F)c3)cc(-c3ccc(O)cc3)n2)cc1`, in experiment [1], the inhibition is 4.4%. The IC50 in experiment [2], in experiment [3], in experiment [4] and in experiment [5] was greater than 50 µM throughout.

For `Oc1ccc(-c2cc(-c3ccc(C(F)(F)F)cc3)cc(-c3ccc(O)cc3)n2)cc1`, the inhibition in experiment [1] stood at 0.2%. In addition, the IC50 in experiment [2], in experiment [3], in experiment [4] and in experiment [5] was greater than 50 µM each time.

As for `Oc1ccccc1-c1cc(-c2ccc(F)cc2)cc(-c2ccccc2O)n1`, the inhibition in experiment [1] stood at 7.2%. Moreover, the IC50 in experiment [2], in experiment [3], in experiment [4] and in experiment [5] was greater than 50 µM each time.

In the case of `Oc1cccc(-c2cc(-c3ccccc3F)cc(-c3ccccc3O)n2)c1`, in experiment [1], the inhibition was found to be 1%. Moreover, the IC50 was 35.6 µM in experiment [2], 8.47 µM in experiment [3], 24.2 µM in experiment [4] and 31.1 µM in experiment [5].

In the case of `Oc1ccccc1-c1cc(-c2ccc(C(F)(F)F)cc2)cc(-c2ccccc2O)n1`, the inhibition in experiment [1] turned out to be 0%. In addition, the IC50 in experiment [2], in experiment [3], in experiment [4] and in experiment [5] was greater than 50 µM in each case.

`Oc1ccc(-c2cc(-c3ccccc3F)cc(-c3ccccc3O)n2)cc1`: in experiment [1], the inhibition came out at 0.2%. Also, the IC50 in experiment [2], in experiment [3], in experiment [4] and in experiment [5] was greater than 50 µM throughout.

For `Oc1ccc(-c2cc(-c3cccc(F)c3)cc(-c3ccc(O)cc3)n2)cc1`, in experiment [1], the inhibition stood at 0%. In addition, the IC50 in experiment [2] is 9.29 µM; in experiment [3], greater than 50 µM; in experiment [4], greater than 50 µM; in experiment [5], greater than 50 µM.

As to `Oc1ccc(-c2cc(-c3ccc(OC(F)(F)F)cc3)cc(-c3ccccc3O)n2)cc1`, the inhibition in experiment [1] worked out at 0%. The IC50 in experiment [2], in experiment [3], in experiment [4] and in experiment [5] was greater than 50 µM in each case.

Consider `Oc1cccc(-c2cc(-c3ccc(F)cc3)cc(-c3ccccc3O)n2)c1`, for which the inhibition in experiment [1] came to 1.3%. Besides, the IC50 in experiment [2], in experiment [3], in experiment [4] and in experiment [5] was greater than 50 µM in each case.

Take `Oc1cccc(-c2cc(-c3cccc(F)c3)cc(-c3cccc(O)c3)n2)c1`: the inhibition in experiment [1] was found to be 4.9%. The half-maximal inhibitory concentration (IC50) was 23.8 µM in experiment [2], 7.86 µM in experiment [3], 21.3 µM in experiment [4] and 1.4 µM in experiment [5].

With `Oc1ccc(-c2cc(-c3cccc(OC(F)(F)F)c3)cc(-c3ccccc3O)n2)cc1`, the inhibition in experiment [1] is 0%. For the same compound, the concentration for half-maximal inhibition (IC50) in experiment [2], in experiment [3], in experiment [4] and in experiment [5] was greater than 50 µM throughout.

For `Oc1ccc(-c2cc(-c3ccc(OC(F)(F)F)cc3)cc(-c3cccc(O)c3)n2)cc1`, the inhibition in experiment [1] came out at 4.4%. In addition, the IC50 in experiment [2] worked out at 18.1 µM; in experiment [3], 1.38 µM; in experiment [4], 18.9 µM; in experiment [5], 27.8 µM.

With `Oc1ccc(-c2cc(-c3ccc(C(F)(F)F)cc3)cc(-c3ccccc3O)n2)cc1`, the inhibition in experiment [1] was found to be 0.1%. Also, the IC50 in experiment [2], in experiment [3], in experiment [4] and in experiment [5] was greater than 50 µM each time.

Consider `Oc1ccccc1-c1cc(-c2cccc(C(F)(F)F)c2)cc(-c2ccccc2O)n1`, for which the inhibition in experiment [1] is 1.2%. Also, the IC50 in experiment [2], in experiment [3], in experiment [4] and in experiment [5] was greater than 50 µM each time.
